Measurements published in ChEMBL document CHEMBL1155996, “Improving potency and selectivity of a new class of non-Zn-chelating MMP-13 inhibitors” (Bioorg Med Chem Lett, 2009).
In brackets after ≈: the same amount, converted by molar mass.

Experiments:
[1] = Solubility of compound at pH 4.5 by high throughput screening; format: physicochemical; conditions: buffer
[2] = Solubility of compound at pH 7.4 by high throughput screening; format: physicochemical; conditions: buffer
[3] = biological target: Collagenase 3 (Homo sapiens, UniProt P45452); assay: Inhibition of human MMP13 by FRET assay

| SMILES | solubility [1] [µg/mL] | solubility [2] [µg/mL] | IC50 [3] [µM] |
| --- | --- | --- | --- |
| CNC(=O)[C@@H](NC(=O)c1ccc(-c2ccc(Cl)cn2)o1)C1CCCCC1 | 35 (≈ 93.1 µM) | 37 (≈ 98.4 µM) | – |
| CNC(=O)[C@@H](NC(=O)c1ccc(-c2ccc(NC(C)=O)cc2)o1)C1CCCCC1 | 15 (≈ 37.7 µM) | 17 (≈ 42.8 µM) | 1.55 |
| CNC(=O)c1ccc(-c2ccc(C(=O)N[C@H](C(=O)NC)C3CCCCC3)o2)cc1 | 16 (≈ 40.3 µM) | 17 (≈ 42.8 µM) | 6 |
| CNC(=O)[C@@H](NC(=O)c1ccc(-c2ccc(OCc3cccc(C)n3)cn2)o1)C1CCCCC1 | 7.4 (≈ 16 µM) | 3.4 (≈ 7.35 µM) | – |
| CNC(=O)[C@@H](NC(=O)c1ccc(-c2ccc(Oc3ccccc3)cc2)o1)C1CCCCC1 | – | – | > 50 |
| CNC(=O)[C@@H](NC(=O)c1ccc(-c2ccc(NS(C)(=O)=O)cc2)o1)C1CCCCC1 | 53 (≈ 122 µM) | 61 (≈ 141 µM) | – |
| CNC(=O)[C@@H](NC(=O)c1ccc(-c2ccc(OCc3cc4ccccc4o3)cn2)o1)C1CCCCC1 | < 0.1 | 0.1 (≈ 0.205 µM) | – |
| CNC(=O)[C@@H](NC(=O)c1ccc(-c2ccc(Cl)cc2)o1)C1CCCCC1 | 1.5 (≈ 4 µM) | 1.9 (≈ 5.07 µM) | – |
| CNC(=O)[C@@H](NC(=O)c1ccc(-c2ccc(OCc3cc(C)n[nH]3)cn2)o1)C1CCCCC1 | 25 (≈ 55.4 µM) | 31 (≈ 68.7 µM) | – |
| CCOc1ccc(-c2ccc(C(=O)N[C@H](C(=O)NC)C3CCCCC3)o2)nc1 | 33 (≈ 85.6 µM) | > 49 | – |
| CNC(=O)[C@@H](NC(=O)c1ccc(-c2ccc(OCc3cc(C)n(C)n3)cn2)o1)C1CCCCC1 | > 57 | > 57 | – |
| CNC(=O)[C@@H](NC(=O)c1ccc(-c2ccc(S(=O)(=O)NC)cc2)o1)C1CCCCC1 | 50 (≈ 115 µM) | 52 (≈ 120 µM) | – |
| CNC(=O)[C@@H](NC(=O)c1ccc(-c2ccc(OCc3ccn[nH]3)cn2)o1)C1CCCCC1 | 39 (≈ 89.1 µM) | 43 (≈ 98.3 µM) | – |
| CNC(=O)[C@@H](NC(=O)c1ccc(-c2ccc(OC)cc2)o1)C1CCCCC1 | 1.4 (≈ 3.78 µM) | 1.6 (≈ 4.32 µM) | – |
